# Laboratory results from US11168364B2, “Method and system for sequencing nucleic acids” (priority 2016, dated 2021).
# Target: T1, Bsu DNA polymerase large fragment / primed template nucleic acid (Bacillus subtilis, UniProt O34996)
# T1 construct: 350 U/ml Bsu DNA polymerase large fragment
# T1 sequence (O34996 297-880 limits assumed): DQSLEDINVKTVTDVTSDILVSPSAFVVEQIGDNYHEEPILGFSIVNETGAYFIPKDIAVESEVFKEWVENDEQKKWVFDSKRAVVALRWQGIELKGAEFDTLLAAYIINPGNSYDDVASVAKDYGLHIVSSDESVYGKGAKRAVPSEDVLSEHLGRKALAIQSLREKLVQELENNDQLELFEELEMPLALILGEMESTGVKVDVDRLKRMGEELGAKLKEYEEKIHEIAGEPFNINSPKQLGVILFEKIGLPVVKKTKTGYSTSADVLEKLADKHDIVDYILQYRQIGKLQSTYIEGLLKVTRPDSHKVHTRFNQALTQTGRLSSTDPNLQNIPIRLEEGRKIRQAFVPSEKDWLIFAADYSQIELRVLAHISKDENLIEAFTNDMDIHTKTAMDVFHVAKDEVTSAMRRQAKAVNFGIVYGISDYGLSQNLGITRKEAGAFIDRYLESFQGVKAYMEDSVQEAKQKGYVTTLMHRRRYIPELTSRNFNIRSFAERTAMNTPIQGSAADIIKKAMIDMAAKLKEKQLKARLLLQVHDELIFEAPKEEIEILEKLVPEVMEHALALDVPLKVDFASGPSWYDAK
# Assay: Biolayer interferometry of polymerase binding to immobilized primed template with cognate or non-cognate nucleotide, salt titration (Example 19)
# Conditions: for Ternary Complex Signal (Δλ, nm): dCTP (cognate); for Binary Complex Signal (Δλ, nm): dGTP (non-cognate)
# Excerpt: A FORTEBIO® (Menlo Park, Calif.) OCTET® instrument employing biolayer interferometry to measure binding reactions at the surface of a fiber optic tip was used in a multiwell plate format to investigate differential stability of binary and ternary complexes. Template strands biotinylated at their 5′-ends were used to immobilize the primed template nucleic acid onto fiber optic tips functionalized with streptavidin (SA) according to standard procedures. […] Tips were first equilibrated in a Tris-buffered solution containing 30 mM Tris-HCl (pH 8.0), and 0.1 mM EDTA before commencing the cycling protocol. Independent binding reactions for the two test nucleotides (i.e., cognate and non-cognate nucleotides) were carried out in the presence of concentrations of NaCl, KCl, or potassium glutamate that varied from 50 mM to 500 mM. […] In all instances, the reaction mixture used during the examination step contained Tris-HCl (pH 8.0), 0.01% Tween-20, 100 μg/ml BSA, 2 mM NiSO4, 350 U/ml Bsu DNA polymerase large fragment; and one of the nucleotides at a concentration of 100 μM (dCTP was used as a cognate nucleotide, and dGTP was used as a non-cognate nucleotide). Following each examination step, tips were exposed to a buffer containing 30 mM Tris-HCl (pH 8.0), 500 mM KCl, 2 mM EDTA and 0.05% Tween-20 for 20 seconds to strip enzyme complexes from the primed template nucleic acid. The stripping step was followed by a 15 second exposure to examination buffer without enzyme, dNTP or divalent cations to regenerate tips for the next cycle of examination. When using a single contacting step to effect binding of polymerase and nucleotide to the primed template nucleic acid, the binding step was 45 seconds long, with binding interactions being monitored continuously. This was accomplished by contacting the primed template nucleic acid with a single solution that included the polymerase and test nucleotide. Results from interferometry monitoring were analyzed to identify formation of ternary complexes (i.e., identifying cognate nucleotide) or binary complexes (i.e., identifying non-cognate nucleotide).
compound,measurement,setting,value
[Cl-].[Na+] [NaCl],Fold Enhancement (Ternary/Binary),NaCl 50 mM,1.07
same,"Ternary Complex Signal (Δλ, nm)",NaCl 50 mM,3.33 nm
same,"Binary Complex Signal (Δλ, nm)",NaCl 50 mM,3.11 nm
same,Fold Enhancement (Ternary/Binary),NaCl 75 mM,1.10
same,"Ternary Complex Signal (Δλ, nm)",NaCl 75 mM,2.77 nm
same,"Binary Complex Signal (Δλ, nm)",NaCl 75 mM,2.51 nm
same,Fold Enhancement (Ternary/Binary),NaCl 100 mM,1.07
same,"Ternary Complex Signal (Δλ, nm)",NaCl 100 mM,2.34 nm
same,"Binary Complex Signal (Δλ, nm)",NaCl 100 mM,2.17 nm
same,Fold Enhancement (Ternary/Binary),NaCl 125 mM,1.04
same,"Ternary Complex Signal (Δλ, nm)",NaCl 125 mM,1.99 nm
same,"Binary Complex Signal (Δλ, nm)",NaCl 125 mM,1.91 nm
same,Fold Enhancement (Ternary/Binary),NaCl 150 mM,1.04
same,"Ternary Complex Signal (Δλ, nm)",NaCl 150 mM,1.73 nm
same,"Binary Complex Signal (Δλ, nm)",NaCl 150 mM,1.67 nm
same,Fold Enhancement (Ternary/Binary),NaCl 175 mM,1.11
same,"Ternary Complex Signal (Δλ, nm)",NaCl 175 mM,1.51 nm
same,"Binary Complex Signal (Δλ, nm)",NaCl 175 mM,1.36 nm
same,Fold Enhancement (Ternary/Binary),NaCl 200 mM,1.19
same,"Ternary Complex Signal (Δλ, nm)",NaCl 200 mM,1.36 nm
same,"Binary Complex Signal (Δλ, nm)",NaCl 200 mM,1.15 nm
same,Fold Enhancement (Ternary/Binary),NaCl 225 mM,1.27
same,"Ternary Complex Signal (Δλ, nm)",NaCl 225 mM,1.28 nm
same,"Binary Complex Signal (Δλ, nm)",NaCl 225 mM,1.01 nm
same,Fold Enhancement (Ternary/Binary),NaCl 250 mM,1.47
same,"Ternary Complex Signal (Δλ, nm)",NaCl 250 mM,1.18 nm
same,"Binary Complex Signal (Δλ, nm)",NaCl 250 mM,0.80 nm
same,Fold Enhancement (Ternary/Binary),NaCl 275 mM,1.65
same,"Ternary Complex Signal (Δλ, nm)",NaCl 275 mM,1.11 nm
same,"Binary Complex Signal (Δλ, nm)",NaCl 275 mM,0.67 nm
same,Fold Enhancement (Ternary/Binary),NaCl 300 mM,1.86
same,"Ternary Complex Signal (Δλ, nm)",NaCl 300 mM,0.99 nm
same,"Binary Complex Signal (Δλ, nm)",NaCl 300 mM,0.53 nm
same,Fold Enhancement (Ternary/Binary),NaCl 325 mM,2.76
same,"Ternary Complex Signal (Δλ, nm)",NaCl 325 mM,0.93 nm
same,"Binary Complex Signal (Δλ, nm)",NaCl 325 mM,0.34 nm
same,Fold Enhancement (Ternary/Binary),NaCl 350 mM,2.94
same,"Ternary Complex Signal (Δλ, nm)",NaCl 350 mM,0.74 nm
same,"Binary Complex Signal (Δλ, nm)",NaCl 350 mM,0.25 nm
same,Fold Enhancement (Ternary/Binary),NaCl 375 mM,3.62
same,"Ternary Complex Signal (Δλ, nm)",NaCl 375 mM,0.61 nm
same,"Binary Complex Signal (Δλ, nm)",NaCl 375 mM,0.17 nm
same,"Ternary Complex Signal (Δλ, nm)",NaCl 400 mM,0.48 nm
same,"Binary Complex Signal (Δλ, nm)",NaCl 400 mM,0.08 nm
same,Fold Enhancement (Ternary/Binary),NaCl 425 mM,5.16
same,"Ternary Complex Signal (Δλ, nm)",NaCl 425 mM,0.38 nm
same,"Binary Complex Signal (Δλ, nm)",NaCl 425 mM,0.07 nm
same,Fold Enhancement (Ternary/Binary),NaCl 450 mM,6.65
same,"Ternary Complex Signal (Δλ, nm)",NaCl 450 mM,0.26 nm
same,"Binary Complex Signal (Δλ, nm)",NaCl 450 mM,0.04 nm
same,Fold Enhancement (Ternary/Binary),NaCl 475 mM,10.28
same,"Ternary Complex Signal (Δλ, nm)",NaCl 475 mM,0.19 nm
same,"Binary Complex Signal (Δλ, nm)",NaCl 475 mM,0.02 nm
same,"Ternary Complex Signal (Δλ, nm)",NaCl 500 mM,0.21 nm
same,"Binary Complex Signal (Δλ, nm)",NaCl 500 mM,0.00 nm
"N[C@@H](CCC(=O)[O-])C(=O)[O-].[K+].[K+] [Potassium Glutamate, potassium glutamate]",Fold Enhancement (Ternary/Binary),Potassium glutamate 50 mM,1.05
same,"Ternary Complex Signal (Δλ, nm)",Potassium glutamate 50 mM,1.67 nm
same,"Binary Complex Signal (Δλ, nm)",Potassium glutamate 50 mM,1.59 nm
same,Fold Enhancement (Ternary/Binary),Potassium glutamate 75 mM,1.01
same,"Ternary Complex Signal (Δλ, nm)",Potassium glutamate 75 mM,1.69 nm
same,"Binary Complex Signal (Δλ, nm)",Potassium glutamate 75 mM,1.68 nm
same,Fold Enhancement (Ternary/Binary),Potassium glutamate 100 mM,1.02
same,"Ternary Complex Signal (Δλ, nm)",Potassium glutamate 100 mM,1.67 nm
same,"Binary Complex Signal (Δλ, nm)",Potassium glutamate 100 mM,1.64 nm
same,Fold Enhancement (Ternary/Binary),Potassium glutamate 125 mM,1.05
same,"Ternary Complex Signal (Δλ, nm)",Potassium glutamate 125 mM,1.65 nm
same,"Binary Complex Signal (Δλ, nm)",Potassium glutamate 125 mM,1.57 nm
same,Fold Enhancement (Ternary/Binary),Potassium glutamate 150 mM,1.07
same,"Ternary Complex Signal (Δλ, nm)",Potassium glutamate 150 mM,1.62 nm
same,"Binary Complex Signal (Δλ, nm)",Potassium glutamate 150 mM,1.51 nm
same,Fold Enhancement (Ternary/Binary),Potassium glutamate 175 mM,1.08
same,"Ternary Complex Signal (Δλ, nm)",Potassium glutamate 175 mM,1.56 nm
same,"Binary Complex Signal (Δλ, nm)",Potassium glutamate 175 mM,1.44 nm
same,Fold Enhancement (Ternary/Binary),Potassium glutamate 200 mM,1.07
same,"Ternary Complex Signal (Δλ, nm)",Potassium glutamate 200 mM,1.51 nm
same,"Binary Complex Signal (Δλ, nm)",Potassium glutamate 200 mM,1.40 nm
same,Fold Enhancement (Ternary/Binary),Potassium glutamate 225 mM,1.11
same,"Ternary Complex Signal (Δλ, nm)",Potassium glutamate 225 mM,1.53 nm
same,"Binary Complex Signal (Δλ, nm)",Potassium glutamate 225 mM,1.38 nm
same,Fold Enhancement (Ternary/Binary),Potassium glutamate 250 mM,1.17
same,"Ternary Complex Signal (Δλ, nm)",Potassium glutamate 250 mM,1.48 nm
same,"Binary Complex Signal (Δλ, nm)",Potassium glutamate 250 mM,1.27 nm
same,Fold Enhancement (Ternary/Binary),Potassium glutamate 275 mM,1.22
same,"Ternary Complex Signal (Δλ, nm)",Potassium glutamate 275 mM,1.52 nm
same,"Binary Complex Signal (Δλ, nm)",Potassium glutamate 275 mM,1.24 nm
same,Fold Enhancement (Ternary/Binary),Potassium glutamate 300 mM,1.23
same,"Ternary Complex Signal (Δλ, nm)",Potassium glutamate 300 mM,1.50 nm
same,"Binary Complex Signal (Δλ, nm)",Potassium glutamate 300 mM,1.23 nm
same,Fold Enhancement (Ternary/Binary),Potassium glutamate 325 mM,1.27
same,"Ternary Complex Signal (Δλ, nm)",Potassium glutamate 325 mM,1.46 nm
same,"Binary Complex Signal (Δλ, nm)",Potassium glutamate 325 mM,1.15 nm
same,Fold Enhancement (Ternary/Binary),Potassium glutamate 350 mM,1.30
same,"Ternary Complex Signal (Δλ, nm)",Potassium glutamate 350 mM,1.39 nm
same,"Binary Complex Signal (Δλ, nm)",Potassium glutamate 350 mM,1.07 nm
same,Fold Enhancement (Ternary/Binary),Potassium glutamate 375 mM,1.32
same,"Ternary Complex Signal (Δλ, nm)",Potassium glutamate 375 mM,1.36 nm
same,"Binary Complex Signal (Δλ, nm)",Potassium glutamate 375 mM,1.03 nm
same,Fold Enhancement (Ternary/Binary),Potassium glutamate 400 mM,1.36
same,"Ternary Complex Signal (Δλ, nm)",Potassium glutamate 400 mM,1.36 nm
same,"Binary Complex Signal (Δλ, nm)",Potassium glutamate 400 mM,0.99 nm
same,Fold Enhancement (Ternary/Binary),Potassium glutamate 425 mM,1.46
same,"Ternary Complex Signal (Δλ, nm)",Potassium glutamate 425 mM,1.33 nm
same,"Binary Complex Signal (Δλ, nm)",Potassium glutamate 425 mM,0.91 nm
same,Fold Enhancement (Ternary/Binary),Potassium glutamate 450 mM,1.52
same,"Ternary Complex Signal (Δλ, nm)",Potassium glutamate 450 mM,1.31 nm
same,"Binary Complex Signal (Δλ, nm)",Potassium glutamate 450 mM,0.86 nm
same,Fold Enhancement (Ternary/Binary),Potassium glutamate 475 mM,1.56
same,"Ternary Complex Signal (Δλ, nm)",Potassium glutamate 475 mM,1.28 nm
same,"Binary Complex Signal (Δλ, nm)",Potassium glutamate 475 mM,0.82 nm
same,Fold Enhancement (Ternary/Binary),Potassium glutamate 500 mM,1.60
same,"Ternary Complex Signal (Δλ, nm)",Potassium glutamate 500 mM,1.28 nm
same,"Binary Complex Signal (Δλ, nm)",Potassium glutamate 500 mM,0.80 nm
